Measurements published in EP3262942A1, “SELENODIARYLS FOR USE AS MICROBICIDE OR AS MEDICINE” (Evonik Degussa GmbH, priority 2016, dated 2018).

How the values were obtained:
Candida albicans = assay: Growth test in microtiter plates, HA medium, 24 h, visual evaluation; format: cell-based; set-up: key: +: kein Wachstum im Vergleich zur Wachstumskontrolle; -: Wachstum wie Wachstumskontrolle
Mucor miehei = assay: as above; format: cell-based; set-up: key to Aktivität gegenüber M. miehei: +: kein Wachstum im Vergleich zur Wachstumskontrolle; -: Wachstum wie Wachstumskontrolle
Penicillium notatum = assay: as above; format: cell-based; set-up: key: +: kein Wachstum im Vergleich zur Wachstumskontrolle; -: Wachstum wie Wachstumskontrolle
Paecilomyces variotii = assay: as above; format: cell-based; set-up: key: +: kein Wachstum im Vergleich zur Wachstumskontrolle; -: Wachstum wie Wachstumskontrolle
M. grisea H2O = assay: microbe, parasite or virus in culture; format: cell-based, Magnaporthe grisea; details: Pyricularia grisea, H2O, 24 h, read-out: Aktivität gegenüber M. grisea H2O
Botrytis cinerea = assay: microbe, parasite or virus in culture; format: cell-based; details: for inhibition of growth at 5 µg/mL / inhibition of growth at 10 µg/mL / inhibition of growth at 25 µg/mL / inhibition of growth at 50 µg/mL: Botrytis cinerea, 24 h, read-out: Aktivität gegenüber B. cinerea
P. infestans = assay: microbe, parasite or virus in culture; format: cell-based, Phytophthora infestans; details: for inhibition of growth at 5 µg/mL / inhibition of growth at 10 µg/mL / inhibition of growth at 25 µg/mL / inhibition of growth at 50 µg/mL: Phytophthora infestans, 24 h, read-out: Aktivität gegenüber P. infestans
M. grisea CM = assay: microbe, parasite or virus in culture; format: cell-based, Magnaporthe grisea; details: Pyricularia grisea, 24 h, read-out: Aktivität gegenüber M. grisea CM
Lepidium sativum = assay: Crop plant growth test, seeds on filter discs, 4 days, visual evaluation; format: in vivo
In short: (§1)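 Compounds dried from DMSO onto filter discs; about 12 seeds per well with 200 µl sterile tap water, incubated 4 days in a humid chamber under 16 h light/8 h dark. Visual scoring: + means at least 75 % growth inhibition versus control, − means less than 75 %.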

Setaria italica = assay: as above; format: in vivo
In short: as §1

[1] = tested on: alle getesteten Pathogene; format: cell-based; details: 5-50 µg/mL

Structure (SMILES)	Aktivität gegenüber C. albicans (Candida albicans; 10µg/mL)	Aktivität gegenüber C. albicans (Candida albicans; 50µg/mL)	Aktivität gegenüber M. miehei (Mucor miehei; 10µg/mL)	Aktivität gegenüber M. miehei (Mucor miehei; 50µg/mL)	Aktivität gegenüber P. notatum (Penicillium notatum; 10µg/mL)	Aktivität gegenüber P. notatum (Penicillium notatum; 50µg/mL)	Aktivität gegenüber P. variotii (Paecilomyces variotii; 10µg/mL)	Aktivität gegenüber P. variotii (Paecilomyces variotii; 50µg/mL)	inhibition of growth at 5 µg/mL (M. grisea H2O)	inhibition of growth at 10 µg/mL (M. grisea H2O)	inhibition of growth at 25 µg/mL (M. grisea H2O)	inhibition of growth at 50 µg/mL (M. grisea H2O)	inhibition of growth at 5 µg/mL (Botrytis cinerea)	inhibition of growth at 10 µg/mL (Botrytis cinerea)	inhibition of growth at 25 µg/mL (Botrytis cinerea)	inhibition of growth at 50 µg/mL (Botrytis cinerea)	inhibition of growth at 5 µg/mL (P. infestans)	inhibition of growth at 10 µg/mL (P. infestans)	inhibition of growth at 25 µg/mL (P. infestans)	inhibition of growth at 50 µg/mL (P. infestans)	other results
CCC(C)(C)c1cc([Se]c2cc(C(C)(C)CC)cc(C(C)(C)CC)c2O)c(O)c(C(C)(C)CC)c1 [Verbindung 16, Bis(3,5-di(1,1-dimethylpropyl)-2-hydroxyphenyl)selen]	-	-	-	-	-	-	-	-	0 to 25%	0 to 25%	0 to 25%	0 to 25%	0 to 25%	0 to 25%	0 to 25%	0 to 25%	0 to 25%	0 to 25%	0 to 25%	0 to 25%	inhibition of growth at 5 µg/mL (M. grisea CM): 0 to 25%; inhibition of growth at 10 µg/mL (M. grisea CM): 0 to 25%; inhibition of growth at 25 µg/mL (M. grisea CM): 0 to 25%; inhibition of growth at 50 µg/mL (M. grisea CM): 0 to 25%; Aktivität gegenüber Nutzpflanzen: L. sativum (Lepidium sativum; 10µg/R): - (weniger als 75 % Wachstumshemmung im Vergleich zur Kontrolle); Aktivität gegenüber Nutzpflanzen: L. sativum (Lepidium sativum; 20µg/R): - (weniger als 75 % Wachstumshemmung im Vergleich zur Kontrolle); Aktivität gegenüber Nutzpflanzen: L. sativum (Lepidium sativum; 50µg/R): - (weniger als 75 % Wachstumshemmung im Vergleich zur Kontrolle); Aktivität gegenüber Nutzpflanzen: S. italica (Setaria italica; 10µg/R): - (weniger als 75 % Wachstumshemmung im Vergleich zur Kontrolle); Aktivität gegenüber Nutzpflanzen: S. italica (Setaria italica; 20µg/R): - (weniger als 75 % Wachstumshemmung im Vergleich zur Kontrolle); Aktivität gegenüber Nutzpflanzen: S. italica (Setaria italica; 50µg/R): - (weniger als 75 % Wachstumshemmung im Vergleich zur Kontrolle); Aktivität im Wachstums- und Keimungshemmungstest gegen die getesteten Pathogene [1]: weder im Wachstums- noch im Keimungshemmungstest im verwendeten Konzentrationsbereich eine entsprechende Aktivität
Cc1cc(C(C)C)c(O)c([Se]c2c(C)c(C)cc(C(C)C)c2O)c1C [Verbindung 18, Bis(5,6-dimethyl-2-hydroxy-3-isopropylphenyl)selen]	-	-	-	-	-	-	-	-	0 to 25%	0 to 25%	0 to 25%	0 to 25%	0 to 25%	0 to 25%	0 to 25%	0 to 25%	0 to 25%	0 to 25%	0 to 25%	0 to 25%	inhibition of growth at 5 µg/mL (M. grisea CM): 0 to 25%; inhibition of growth at 10 µg/mL (M. grisea CM): 0 to 25%; inhibition of growth at 25 µg/mL (M. grisea CM): 0 to 25%; inhibition of growth at 50 µg/mL (M. grisea CM): 0 to 25%; Aktivität gegenüber Nutzpflanzen: L. sativum (Lepidium sativum; 10µg/R): - (weniger als 75 % Wachstumshemmung im Vergleich zur Kontrolle); Aktivität gegenüber Nutzpflanzen: L. sativum (Lepidium sativum; 20µg/R): - (weniger als 75 % Wachstumshemmung im Vergleich zur Kontrolle); Aktivität gegenüber Nutzpflanzen: L. sativum (Lepidium sativum; 50µg/R): - (weniger als 75 % Wachstumshemmung im Vergleich zur Kontrolle); Aktivität gegenüber Nutzpflanzen: S. italica (Setaria italica; 10µg/R): - (weniger als 75 % Wachstumshemmung im Vergleich zur Kontrolle); Aktivität gegenüber Nutzpflanzen: S. italica (Setaria italica; 20µg/R): - (weniger als 75 % Wachstumshemmung im Vergleich zur Kontrolle); Aktivität gegenüber Nutzpflanzen: S. italica (Setaria italica; 50µg/R): - (weniger als 75 % Wachstumshemmung im Vergleich zur Kontrolle); Aktivität im Wachstums- und Keimungshemmungstest gegen die getesteten Pathogene [1]: weder im Wachstums- noch im Keimungshemmungstest im verwendeten Konzentrationsbereich eine entsprechende Aktivität
COc1cc(OC)c([Se]c2cc(OC)c(OC)cc2OC)cc1OC [Verbindung 26, Bis(2,4,5-trimethoxyphenyl)selen]	-	-	-	+	-	-	-	-	25 to 50%	> 75%	> 75%	> 75%	0 to 25%	0 to 25%	0 to 25%	0 to 25%	0 to 25%	0 to 25%	0 to 25%	0 to 25%	Aktivität im Wachstumstest mit M. miehei (Mucor miehei; […]): mikrobizide Wirksamkeit; Wirksamkeit gegenüber P. infestans (P. infestans; […]): keine Wirkung; inhibition of growth at 5 µg/mL (M. grisea CM): 25 to 50%; inhibition of growth at 10 µg/mL (M. grisea CM): > 75%; inhibition of growth at 25 µg/mL (M. grisea CM): > 75%; inhibition of growth at 50 µg/mL (M. grisea CM): > 75%; Aktivität gegenüber Nutzpflanzen: L. sativum (Lepidium sativum; 10µg/R): - (weniger als 75 % Wachstumshemmung im Vergleich zur Kontrolle); Aktivität gegenüber Nutzpflanzen: L. sativum (Lepidium sativum; 20µg/R): - (weniger als 75 % Wachstumshemmung im Vergleich zur Kontrolle); Aktivität gegenüber Nutzpflanzen: L. sativum (Lepidium sativum; 50µg/R): - (weniger als 75 % Wachstumshemmung im Vergleich zur Kontrolle); Aktivität gegenüber Nutzpflanzen: S. italica (Setaria italica; 10µg/R): - (weniger als 75 % Wachstumshemmung im Vergleich zur Kontrolle); Aktivität gegenüber Nutzpflanzen: S. italica (Setaria italica; 20µg/R): - (weniger als 75 % Wachstumshemmung im Vergleich zur Kontrolle); Aktivität gegenüber Nutzpflanzen: S. italica (Setaria italica; 50µg/R): - (weniger als 75 % Wachstumshemmung im Vergleich zur Kontrolle); Aktivität im Wachstums- und Keimungshemmungstest gegen die getesteten Pathogene [1]: fungizider Effekt
Cc1cc([Se]c2cc(C)c(O)c(C)c2)cc(C)c1O [Verbindung 19, Bis(3,5-dimethyl-4-hydroxyphenyl)selen]	-	-	+	+	-	+	-	-	> 75%	> 75%	> 75%	> 75%	25 to 50%	> 75%	> 75%	0 to 25%	0 to 25%	50 to 75%	50 to 75%	0 to 25%	mikrobizide Wirksamkeit gegenüber B. cinerea (Botrytis cinerea): mikrobizide Wirksamkeit; inhibition of growth at 5 µg/mL (M. grisea CM): > 75%; inhibition of growth at 10 µg/mL (M. grisea CM): > 75%; inhibition of growth at 25 µg/mL (M. grisea CM): > 75%; inhibition of growth at 50 µg/mL (M. grisea CM): > 75%; Aktivität gegenüber Nutzpflanzen: L. sativum (Lepidium sativum; 10µg/R): - (weniger als 75 % Wachstumshemmung im Vergleich zur Kontrolle); Aktivität gegenüber Nutzpflanzen: L. sativum (Lepidium sativum; 20µg/R): - (weniger als 75 % Wachstumshemmung im Vergleich zur Kontrolle); Aktivität gegenüber Nutzpflanzen: L. sativum (Lepidium sativum; 50µg/R): - (weniger als 75 % Wachstumshemmung im Vergleich zur Kontrolle); Aktivität gegenüber Nutzpflanzen: S. italica (Setaria italica; 10µg/R): + (mind. 75 % Wachstumshemmung im Vergleich zur Kontrolle); Aktivität gegenüber Nutzpflanzen: S. italica (Setaria italica; 20µg/R): + (mind. 75 % Wachstumshemmung im Vergleich zur Kontrolle); Aktivität gegenüber Nutzpflanzen: S. italica (Setaria italica; 50µg/R): + (mind. 75 % Wachstumshemmung im Vergleich zur Kontrolle); Effekt auf S. italica (Setaria italica; […]): wachstumshemmenden Effekt; Aktivität im Wachstums- und Keimungshemmungstest gegen die getesteten Pathogene [1]: deutliche Aktivität gegenüber allen getesteten Pathogenen, mit Ausnahme von C. albicans
